This test addresses T1, DcVAO (vanillyl alcohol oxidase) (Diplodia corticola, UniProt A0A1J9QSC2).
T1 construct: gene BKCO1_4900020
The experiment in a line: specific activity of purified enzyme, xylenol orange H2O2 assay. The class given is biochemical.

T1 sequence (A0A1J9QSC2 entry or part of it): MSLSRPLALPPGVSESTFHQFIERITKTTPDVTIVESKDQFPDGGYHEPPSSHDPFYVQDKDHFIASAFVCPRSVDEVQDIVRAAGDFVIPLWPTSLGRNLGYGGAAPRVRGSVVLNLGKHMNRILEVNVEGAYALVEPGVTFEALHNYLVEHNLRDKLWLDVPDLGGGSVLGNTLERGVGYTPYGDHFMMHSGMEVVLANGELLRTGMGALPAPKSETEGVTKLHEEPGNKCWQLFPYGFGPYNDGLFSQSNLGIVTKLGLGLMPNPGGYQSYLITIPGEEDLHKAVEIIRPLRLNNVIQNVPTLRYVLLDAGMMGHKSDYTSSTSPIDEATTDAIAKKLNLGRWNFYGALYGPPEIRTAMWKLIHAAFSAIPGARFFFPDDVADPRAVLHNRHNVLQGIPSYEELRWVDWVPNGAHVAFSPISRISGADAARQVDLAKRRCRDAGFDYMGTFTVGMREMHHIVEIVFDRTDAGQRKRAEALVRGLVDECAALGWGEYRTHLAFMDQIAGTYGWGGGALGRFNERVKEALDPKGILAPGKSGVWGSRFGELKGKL

As for `COc1cc(CO)cc(OC)c1O` [compound 6, 4-(hydroxymethyl)-2,6-dimethoxyphenol], the “specific activity of purified enzyme, xylenol orange H2O2 assay” value is 6.3 ± 0.5 U mg^−1.

These data come from publication PMC10404669, “Vanillyl alcohol oxidase from Diplodia corticola: Residues Ala420 and Glu466 allow for efficient catalysis of syringyl derivatives” (The Journal of Biological Chemistry, 2023).
